Experimental data: patent US5369103A, “Piperazine derivatives” (John Wyeth & Brother, Limited, priority 1990, dated 1994)

How the values were obtained:
5HT1A receptor [1] = biological target: T1, 5HT1A receptor (Rattus norvegicus, UniProt P19327); assay: 5HT1A receptor binding activity in rat hippocampal membrane homogenate; settings: read-out: 1C50
T1 construct: rat hippocampal membrane homogenate; from tissue; host or cells: rat hippocampus, membrane homogenate
T1 sequence (P19327 1-422): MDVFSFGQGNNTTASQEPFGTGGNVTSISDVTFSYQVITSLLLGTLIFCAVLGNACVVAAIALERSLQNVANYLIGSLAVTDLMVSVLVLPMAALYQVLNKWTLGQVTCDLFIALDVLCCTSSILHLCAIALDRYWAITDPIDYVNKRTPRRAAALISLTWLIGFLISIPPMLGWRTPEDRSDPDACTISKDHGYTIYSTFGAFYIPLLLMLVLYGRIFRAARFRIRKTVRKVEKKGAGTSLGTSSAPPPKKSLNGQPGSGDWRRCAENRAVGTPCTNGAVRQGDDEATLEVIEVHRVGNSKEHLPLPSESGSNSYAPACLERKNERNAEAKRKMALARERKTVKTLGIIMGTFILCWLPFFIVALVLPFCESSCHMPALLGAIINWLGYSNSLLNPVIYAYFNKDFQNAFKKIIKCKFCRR
Procedure: The compounds of the invention were tested for 5HT1A receptor binding activity in rat hippocampal membrane homogenate by the method of B. S. Alexander and M. D. Wood, J Pharm Pharmacol, 1988, 40,888-891. The results for representative compounds of the invention are given below

α1 sites = assay: affinity for α1 sites; assay type: binding; settings: read-out: 1C50
5HT1A receptor [2] = biological target: T2, 5HT1A receptor (Cavia porcellus, UniProt A0A286Y074); assay: 5HT1A receptor antagonism: antagonism of 5-carboxamidotryptamine in the guinea-pig ileum in vitro; assay type: cell-based; settings: read-out: pA2 (converted)
T2 construct: guinea-pig ileum in vitro; from tissue; host or cells: guinea-pig ileum
T2 sequence (A0A286Y074 1-421): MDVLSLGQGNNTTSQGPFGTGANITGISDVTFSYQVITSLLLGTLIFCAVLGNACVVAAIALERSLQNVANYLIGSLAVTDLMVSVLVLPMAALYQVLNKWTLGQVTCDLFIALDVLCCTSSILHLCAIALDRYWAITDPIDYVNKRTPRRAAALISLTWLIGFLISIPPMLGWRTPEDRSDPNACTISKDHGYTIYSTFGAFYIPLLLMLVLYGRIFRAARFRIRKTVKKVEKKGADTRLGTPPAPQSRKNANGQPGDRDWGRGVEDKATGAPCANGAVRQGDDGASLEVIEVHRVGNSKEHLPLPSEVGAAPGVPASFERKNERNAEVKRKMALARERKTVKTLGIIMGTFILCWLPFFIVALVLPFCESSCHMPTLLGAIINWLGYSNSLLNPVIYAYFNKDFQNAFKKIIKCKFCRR
Procedure: The compounds are tested for 5HT1A receptor antagonism activity in a test involving the antagonism of 5-carboxamidotryptamine in the guinea-pig ileum in vitro (based upon the procedure of Fozard et al, Br J Pharmac, 1985, 86, 601P).

Row | Structure (SMILES) | IC50 (5HT1A receptor [1]) [nM] | IC50 (α1 sites) [nM] | Kb (5HT1A receptor [2]) [nM]
1 | COc1ccccc1N1CCN(CC(CC(=O)N2CCCCCC2)c2ccccc2)CC1 (centres unmarked) [Example 6, 2,3,4,5,6,7-Hexahydro-1-[4-(4-(2-methoxyphenyl)piperazin-1-yl)-3-phenylbutanoyl]-1H-azepine] | 1.38 | 682 | 0.794
2 | COc1ccccc1N1CCN(C/C(=C/C(=O)N2CCCCCC2)c2ccccc2)CC1 [Example 3 (E-isomer), 2,3,4,5,6,7-Hexahydro-1-[4-(4-(2-methoxyphenyl)piperazin-1-yl)-3-phenylbut-2-enoyl]-1H-azepine] | 9 | 2160 | –
